In patent USRE46511E1, “Fused pyrimidine derivatives for inhibition of tyrosine kinase activity” (HANMI SCIENCE CO., LTD., priority 2010, dated 2017):
Read-outs that look alike come from different tables or passages of the source.

What was measured:
[1] = system: NCI-H1975 (EGFR L858R/T790M); experiment: Inhibition test for growth of cancer cell expressing EGFR (MTS), NCI-H1975; assay type: cell-based; details: NCI-H1975 cells, 48 hours, MTS, read-out: GI50 NCI-H1975 EGFR L858R/T790M
[2] = system: HCC827 (EGFR DelE746_A750); experiment: Inhibition test for growth of cancer cell expressing EGFR (SRB), HCC827; assay type: cell-based; details: HCC827 cells, 72 hours, SRB, read-out: GI50 HCC827 EGFR DelE746_A750;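 also: cells in 96-well plates exposed to tenfold serial dilutions from 100 µM, fixed with trichloroacetic acid, SRB-stained, absorbance read at 540 nm, DMSO under 1%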
Method: (§4) A431 cell line was incubated in a high-glucose DMEM (Dulbecco's Modified Eagle's Medium) supplemented with 10% fetal bovine serum (FBS) and 1% penicillin/streptomycin (Gibco BRL), and HCC827 and NCI-H1975 cell lines were incubated in an RPMI medium supplemented with 10% FBS, 1% penicillin/streptomycin and 1% sodium pyruvate.
(§5) The cancer cell lines stored in a liquid nitrogen tank were each quickly thawed at 37° C., and centrifuged to remove the medium. The resulting cell pellet was mixed with a culture medium, incubated in a culture flask at 37° C. under 5% CO2 for 2 to 3 days, and the medium was removed. The remaining cells were washed with DPBS (Dulbecco's Phosphate Buffered Saline) and separated from the flask by using Tripsin-EDTA. […] 100 μl of the diluted cell solution was added to each well of a 96-well plate, and incubated at 37° C. under 5% CO2 for 1 day.
(§6) In case that the test compound was not soluble in DMSO, 1% HCl was added thereto and treated in a 40° C. water bath for 30 mins until a complete dissolution was attained. The DMSO solution containing test compound was diluted with a culture medium to a final concentration of 100 μM, and then diluted 10 times serially to 10^−6 μM (a final concentration of DMSO was less than 1%).
(§7) The medium was removed from each well of the 96-well plate. And then, 100 μl of a test compound solution was added to each well holding the cultured cells, and the plate was incubated at 37° C. under 5% CO2 for 72 hours (except that NCI-H1975 cells were incubated for 48 hours). After removing the medium from the plate, 50 μA of 10% trichloroacetic acid was added to each well, and the plate was kept at 4° C. for 1 hour to fix the cells to the bottom of the plate. The added 10% trichloroacetic acid solution was removed from each well, the plate was dried, 100 μA of an SRB (Sulforhodamine-B) dye solution at a concentration of 0.4% dissolved in 1% acetic acid was added thereto, and the resulting mixture was reacted for 10 mins at room temperature. After removing the dye solution, the plate was washed with water, and well dried. When the dye solution was not effectively removed by water, 1% acetic acid was used. 150 μA of 10 mM trisma base was added to each well, and the absorbance at 540 nm wavelength was determined with a microplate reader.

BTK = target: T1, BTK (Homo sapiens, UniProt Q06187); experiment: z-lyte kinase assay, BTK; assay type: biochemical
T1 construct: purchased Invitrogen
Method: (§1) The inhibiting activities of the inventive compounds obtained in Examples 1 to 237 against EGFR WT and EGFR L858R/T790M kinase were determined using z-lyte kinase assay kit (Invitrogen, PV3191). The kinases used in the test were purchased from Invitrogen.
(§2) The compounds obtained in Examples 1 to 237 were each prepared to 10 mM DMSO solution, and a solution containing 4% DMSO were prepared therefrom and diluted to a concentration of 1 μM to 0.0001 μM. […] The test was conducted in a 384 well polystyrene flat-bottomed plates. 5 μl of the diluted solution of each compound was added to each well, and 10 μl of a mixture of peptide substrate and kinase in a suitable concentration and 5 μl of 5˜300 μM ATP solution were successively added thereto and the plate was incubated in a stirrer at room temperature for 60 minutes. After 60 mins, 10 μl of coloring reagent was added to the resulting mixture to initiate a fluorescence reaction of peptide substrate and a terminating solution was added thereto for terminating the reaction. A fluorescence value of each well was determined with a fluorescence meter (Molecular Device) at 400 nm (excitation filter) and 520 nm (emission filter). […] The calculation of IC50 and the result analysis were carried out by using Microsoft Excel.
(§3) The inhibiting activities of the inventive compounds obtained in Examples 1 to 237 against BTK and JAK3 kinases were determined, respectively. The procedure of Test Example 2 was repeated except that BTK and JAK3 kinases (Invitrogen) were employed instead of using the EGFR kinase.

JAK3 = target: T2, JAK3 (Homo sapiens, UniProt P52333); experiment: z-lyte kinase assay, JAK3; assay type: biochemical
T2 construct: purchased Invitrogen
T2 sequence (P52333 1-1124): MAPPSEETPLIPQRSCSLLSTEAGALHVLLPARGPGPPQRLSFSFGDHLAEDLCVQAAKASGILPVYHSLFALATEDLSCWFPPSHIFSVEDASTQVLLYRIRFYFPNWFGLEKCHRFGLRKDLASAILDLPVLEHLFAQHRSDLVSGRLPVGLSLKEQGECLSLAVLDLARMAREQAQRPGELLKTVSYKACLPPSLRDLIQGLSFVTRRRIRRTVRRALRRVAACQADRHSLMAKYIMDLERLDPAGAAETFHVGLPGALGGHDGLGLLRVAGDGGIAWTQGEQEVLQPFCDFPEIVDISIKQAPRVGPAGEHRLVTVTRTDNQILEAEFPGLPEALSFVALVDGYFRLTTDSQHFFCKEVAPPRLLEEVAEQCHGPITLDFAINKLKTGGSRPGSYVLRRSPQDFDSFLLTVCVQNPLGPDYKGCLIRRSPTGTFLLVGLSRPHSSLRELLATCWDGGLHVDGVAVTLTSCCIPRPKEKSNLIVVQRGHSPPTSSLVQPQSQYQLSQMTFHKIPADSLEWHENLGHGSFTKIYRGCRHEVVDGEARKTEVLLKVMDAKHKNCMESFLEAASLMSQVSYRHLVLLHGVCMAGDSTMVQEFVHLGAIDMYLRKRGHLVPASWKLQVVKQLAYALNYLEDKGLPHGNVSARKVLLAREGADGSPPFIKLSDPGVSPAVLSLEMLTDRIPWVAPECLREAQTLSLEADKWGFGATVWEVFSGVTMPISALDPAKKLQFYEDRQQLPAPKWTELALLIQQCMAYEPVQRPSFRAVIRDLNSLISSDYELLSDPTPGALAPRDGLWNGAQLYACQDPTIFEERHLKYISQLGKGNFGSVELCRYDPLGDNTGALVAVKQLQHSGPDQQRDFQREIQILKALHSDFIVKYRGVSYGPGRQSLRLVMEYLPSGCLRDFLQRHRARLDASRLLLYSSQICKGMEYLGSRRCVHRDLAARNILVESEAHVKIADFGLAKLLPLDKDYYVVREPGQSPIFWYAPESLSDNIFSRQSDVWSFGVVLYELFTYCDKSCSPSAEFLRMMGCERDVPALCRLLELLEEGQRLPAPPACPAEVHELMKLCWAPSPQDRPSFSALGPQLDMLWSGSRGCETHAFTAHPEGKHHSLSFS
Method: as §1, §2, §3

A431 (EGFR WT) = experiment: Inhibition test for growth of cancer cell expressing EGFR (SRB), A431; assay type: cell-based; details: Homo sapiens, A-431; A431 cells, 72 hours, SRB; read-out: GI50 A431 EGFR WT;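 also: cells in 96-well plates exposed to tenfold serial dilutions from 100 µM down to 10^−6 µM, DMSO under 1%, SRB staining read as absorbance at 540 nm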
Method: as §4, §5, §6, §7

T1 sequence (Q06187 whole entry): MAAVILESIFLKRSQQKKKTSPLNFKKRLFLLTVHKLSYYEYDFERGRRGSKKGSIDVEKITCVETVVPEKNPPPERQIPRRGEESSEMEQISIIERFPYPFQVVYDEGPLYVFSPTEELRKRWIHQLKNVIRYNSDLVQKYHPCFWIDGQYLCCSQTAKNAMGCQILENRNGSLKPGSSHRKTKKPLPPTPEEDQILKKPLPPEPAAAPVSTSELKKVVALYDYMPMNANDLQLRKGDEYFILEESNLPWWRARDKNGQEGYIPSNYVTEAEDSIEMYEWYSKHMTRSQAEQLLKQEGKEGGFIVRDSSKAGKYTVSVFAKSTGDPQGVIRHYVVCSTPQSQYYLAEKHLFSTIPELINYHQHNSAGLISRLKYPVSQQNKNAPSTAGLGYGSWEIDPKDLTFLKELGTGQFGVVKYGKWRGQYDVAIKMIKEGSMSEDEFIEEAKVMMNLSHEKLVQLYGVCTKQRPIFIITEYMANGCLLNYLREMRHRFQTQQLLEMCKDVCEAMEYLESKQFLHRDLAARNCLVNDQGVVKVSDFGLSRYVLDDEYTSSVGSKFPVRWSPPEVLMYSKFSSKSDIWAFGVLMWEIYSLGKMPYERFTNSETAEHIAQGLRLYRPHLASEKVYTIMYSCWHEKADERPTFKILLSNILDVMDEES

SMILES | GI50 ([1]; Homo sapiens) | GI50 ([2]; Homo sapiens, HCC827, 72 h) | IC50 (BTK) | IC50 (JAK3) | GI50 (A431 (EGFR WT)) | GI50 [1] | GI50 [2]
C=CC(=O)Nc1cccc(Oc2nc(Nc3ccc(N4CCN(C5CCN(C)CC5)CC4)nc3)nc3ccsc23)c1 [Example 148] | < 50 nM | < 50 nM | ≤ 50 nM | 50 to 100 nM |  |  | 
C=CC(=O)Nc1cccc(Oc2nc(Nc3ccc(N4CCC(CN5CCCCC5)CC4)cc3)nc3ccsc23)c1 [Example 42] | < 50 nM | < 50 nM | ≤ 50 nM | 50 to 100 nM | > 1000 nM |  | 
C=CC(=O)Nc1cccc(Oc2nc(Nc3ccc(C(=O)NC4CCN(C)CC4)cc3)nc3ccsc23)c1 [Example 82] | < 50 nM | < 50 nM | ≤ 50 nM | ≤ 50 nM | > 1000 nM |  | 
C=CC(=O)Nc1cccc(Oc2nc(Nc3ccc(C(=O)NC4CCN(C)CC4)c(Cl)c3)nc3ccsc23)c1 [Example 142] | < 50 nM | < 50 nM | ≤ 50 nM | ≤ 50 nM | > 1000 nM |  | 
C=CC(=O)Nc1cccc(Oc2nc(Nc3ccc(CN4CCC(N(C)C)CC4)cc3)nc3ccoc23)c1 [Example 232] | 50 to 100 nM | 50 to 100 nM | ≤ 50 nM | ≤ 50 nM |  |  | 
C=CC(=O)Nc1cccc(Oc2nc(Nc3ccc(S(=O)(=O)NCCN(C)C)cc3)nc3ccsc23)c1 [Example 72] | < 50 nM | < 50 nM | ≤ 50 nM | ≤ 50 nM |  |  | 
C=CC(=O)Nc1cccc(Oc2nc(Nc3ccc(OC4CCN(CC)CC4)cc3)nc3ccsc23)c1 [Example 66] | < 50 nM | < 50 nM | ≤ 50 nM | 50 to 100 nM | > 1000 nM |  | 
C=CC(=O)Nc1cccc(Oc2nc(Nc3ccc(N4CCC(CN(C)C)CC4)cc3)nc3ccsc23)c1 [Example 41] | < 50 nM | < 50 nM | 50 to 100 nM | 50 to 100 nM |  |  | 
C=CC(=O)Nc1cccc(Oc2nc(Nc3ccc(OCCN(C)C)cc3)nc3ccsc23)c1 [Example 62] | < 50 nM | < 50 nM | ≤ 50 nM | ≤ 50 nM | > 1000 nM |  | 
C=CC(=O)Nc1cccc(Oc2nc(Nc3ccc(CN(CC)CC)cc3)nc3ccsc23)c1 [Example 174] | < 50 nM | < 50 nM | ≤ 50 nM | 50 to 100 nM |  |  | 
C=CC(=O)Nc1cccc(Oc2nc(Nc3ccc(CC(=O)NC4CCN(C)CC4)cc3)nc3ccsc23)c1 [Example 103] | < 50 nM | 100 to 1000 nM | ≤ 50 nM | ≤ 50 nM |  |  | 
C=CC(=O)Nc1cccc(Oc2nc(Nc3ccc(C4CCN(C)CC4)c(F)c3)nc3ccsc23)c1 [Example 127] | < 50 nM | < 50 nM | 50 to 100 nM | 50 to 100 nM |  |  | 
C=CC(=O)Nc1cccc(Oc2nc(Nc3ccc(N4CC5CC4CN5C)cc3)nc3ccsc23)c1 (stereo not drawn) [Example 28] | < 50 nM | 50 to 100 nM | ≤ 50 nM | ≤ 50 nM |  |  | 
C=CC(=O)Nc1cccc(Oc2nc(Nc3ccc(NC4CCN(C(C)C)CC4)c(F)c3)nc3ccsc23)c1 [Example 130] | < 50 nM | < 50 nM | 50 to 100 nM | ≤ 50 nM |  |  | 
C=CC(=O)Nc1cccc(Oc2nc(Nc3ccc(N4CC[C@@H](n5ccnc5)C4)cc3)nc3ccsc23)c1 [Example 36] |  |  | 50 to 100 nM | 50 to 100 nM |  | < 50 nM | 50 to 100 nM
C=CC(=O)Nc1cccc(Oc2nc(Nc3ccc(NC4CCN(C)CC4)cc3)nc3ccsc23)c1 [Example 59] | 100 to 1000 nM | < 50 nM | ≤ 50 nM | 50 to 100 nM |  |  | 
C=CC(=O)Nc1cccc(Oc2nc(Nc3ccc(CS(C)(=O)=O)cc3)nc3ccsc23)c1 [Example 95] | < 50 nM | < 50 nM | 50 to 100 nM | 50 to 100 nM |  |  | 
C=CC(=O)Nc1cccc(Oc2nc(Nc3ccc(NCCN(C)C)cc3)nc3ccsc23)c1 [Example 57] | 100 to 1000 nM | < 50 nM | ≤ 50 nM | 50 to 100 nM |  |  | 
C=CC(=O)Nc1cccc(Oc2nc(Nc3ccc(CN4CCN(C)CC4)nc3)nc3ccsc23)c1 [Example 169] | 50 to 100 nM | < 50 nM | ≤ 50 nM | 50 to 100 nM |  |  | 
C=CC(=O)Nc1cccc(Oc2nc(Nc3ccc(N4CCC(CO)CC4)cc3)nc3ccsc23)c1 [Example 40] | 50 to 100 nM | < 50 nM | 50 to 100 nM | 50 to 100 nM |  |  | 
C=CC(=O)Nc1cccc(Oc2nc(Nc3ccc(NC4CCN(C(C)C)CC4)nc3)nc3ccsc23)c1 [Example 154] | 50 to 100 nM | 50 to 100 nM | ≤ 50 nM | 50 to 100 nM |  |  | 
C=CC(=O)Nc1cccc(Oc2nc(Nc3ccc(C4CCCN(C)C4)cc3)nc3ccsc23)c1 (stereo not drawn) [Example 55] | < 50 nM | < 50 nM | 50 to 100 nM | ≤ 50 nM |  |  | 
C=CC(=O)Nc1cccc(Oc2nc(Nc3ccc(N4CCC(N5CCCC5)CC4)cc3)nc3ccsc23)c1 [Example 47] | < 50 nM | < 50 nM | 50 to 100 nM | 50 to 100 nM |  |  | 
C=CC(=O)Nc1cccc(Oc2nc(Nc3ccc(C(=O)NCCN(C)C)cc3)nc3ccsc23)c1 [Example 79] | 100 to 1000 nM | < 50 nM | ≤ 50 nM | ≤ 50 nM |  |  | 
C=CC(=O)Nc1cccc(Oc2nc(Nc3ccc(N4CCN(C)CC4)c(Cl)c3)nc3ccsc23)c1 [Example 7] | < 50 nM | < 50 nM | ≤ 50 nM | 50 to 100 nM |  |  | 
